# According to paper PMC12730722, “Identification and Functional Characterization of the Leg-Enriched Chemosensory Protein PxylCSP9 in Plutella xylostella (Lepidoptera: Plutellidae)” (Biology, 2025):
# Columns and labels:
# P. xylostella [1] = system: P. xylostella; parameters: key to behavioral effect of plant volatile on P. xylostella (attractive / repellent): Refers to plant volatiles that are attractive to P. xylostella; b: Refers to plant volatiles that are repellent to P. xylostella; details: cited from earlier work; for behavioral effect of plant volatile on P. xylostella (attractive / repellent): footnote marks of Table 2, ref 37,45,46,47,48 (a), ref 49,50,51 (b)
# PxylCSP9 [2] = target: T1, PxylCSP9 (Plutella xylostella, UniProt A0A8S4FJE6); assay: Binding of fluorescent probe Bis-ANS to PxylCSP9 (titration, Scatchard plot); details: 1 μM protein, 50 mM Tris-HCl pH 7.4, probe 1 to 10 μM, read-out: dissociation constant of PxylCSP9/Bis-ANS complex
# Method: To identify the ligands that bind to PxylCSP9, we selected several typical chemical components from the host plants of P. xylostella for fluorescence competitive binding experiments. The purity of all ligands and the fluorescent probe 4,4′-dianilino-1,1′-binaphthyl-5,5′-sulfonate (Bis-ANS) was ≥95%, which was purchased from Aladdin (Shanghai, China) or Sigma-Aldrich (St. Louis, MO, USA.). All the compounds were dissolved individually in chromatography-grade methanol (Aladdin, Shanghai, China) to prepare 1 mM stock solutions. Fluorescence competitive binding assays were performed using an RF-5301 Fluorescence Spectrophotometer (Shimadzu, Kyoto, Japan) with a quartz cuvette of a 1 cm path length. The excitation and emission slit widths were both set to 5 nm. The excitation wavelength of the fluorescent probe was 365 nm, and the emission spectra were recorded from 400 to 580 nm.
# The affinity of Bis-ANS for PxylCSP9 was measured by titrating a 1 μM solution of the protein in 50 mM Tris-HCl (pH 7.4) with aliquots of 1 mM Bis-ANS stock solution to final probe concentrations ranging from 1 to 10 μM. In competitive binding assays, the ligand concentrations ranging from 0 to 10 μM were added to a solution containing PxylCSP9 (1 μM) and Bis-ANS (1 μM). […]
# P. xylostella [3] = system: P. xylostella; parameters: method as in doi:10.1111/j.1744-7917.2004.tb00178.x, doi:10.1111/jen.13144, PMID 29474734; details: cited from earlier work
# PxylCSP9 [4] = target: T1, PxylCSP9; assay: Fluorescence competitive binding assay (Bis-ANS probe displacement)
# Method: The purity of all ligands and the fluorescent probe 4,4′-dianilino-1,1′-binaphthyl-5,5′-sulfonate (Bis-ANS) was ≥95%, which was purchased from Aladdin (Shanghai, China) or Sigma-Aldrich (St. Louis, MO, USA.). All the compounds were dissolved individually in chromatography-grade methanol (Aladdin, Shanghai, China) to prepare 1 mM stock solutions. […] The excitation and emission slit widths were both set to 5 nm. The excitation wavelength of the fluorescent probe was 365 nm, and the emission spectra were recorded from 400 to 580 nm.
# In competitive binding assays, the ligand concentrations ranging from 0 to 10 μM were added to a solution containing PxylCSP9 (1 μM) and Bis-ANS (1 μM). All data were analyzed based on the assumptions that the protein was 100% active and that binding followed a 1:1 stoichiometry (protein:ligand) at saturation. The binding curves for Bis-ANS were linearized using a Scatchard plot. The dissociation constants of the competitors were calculated from their corresponding IC50 values using the following equation: Ki = [IC50]/(1 + [Bis-ANS]/KBis-ANS), where IC50 is the ligand concentration that reduces the initial fluorescence intensity of Bis-ANS by half, [Bis-ANS] is the free concentration of Bis-ANS, and KBis-ANS is the dissociation constant of the PxylCSP9/Bis-ANS complex.
# [5] = system: certain lepidopteran insects; parameters: method as in PMID 40195004, doi:10.1023/A:1020990018111, doi:10.1023/A:1020750029362; details: cited from earlier work
# T1 sequence (A0A8S4FJE6 entry or part of it): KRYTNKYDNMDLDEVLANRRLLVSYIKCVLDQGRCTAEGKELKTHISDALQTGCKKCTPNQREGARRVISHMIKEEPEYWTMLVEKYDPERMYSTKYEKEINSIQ
structure (smiles),measurement,setting,value
CCCCCCCCC=O [1-Nonanal],behavioral effect of plant volatile on P. xylostella (attractive / repellent),P. xylostella [1],1-Nonanal ^a
"CCCC(C)CC(C)C (centres unmarked) [2,4-Dimethylheptane]",behavioral effect of plant volatile on P. xylostella (attractive / repellent),P. xylostella [1],"2,4-Dimethylheptane ^b"
CCCCCCCC(C)C [2-Methylnonane],behavioral effect of plant volatile on P. xylostella (attractive / repellent),P. xylostella [1],2-Methylnonane ^b
CCC/C=C/C=O [(E)-2-Hexenal],behavioral effect of plant volatile on P. xylostella (attractive / repellent),P. xylostella [1],(E)-2-Hexenal ^a
C=C(C)[C@@H]1CC=C(C)C(=O)C1 [(R)-(-)-Carvone],behavioral effect of plant volatile on P. xylostella (attractive / repellent),P. xylostella [1],(R)-(-)-Carvone ^b
C=CCN=C=S [Allyl isothiocyanate],feeding and oviposition behaviors in P. xylostella,P. xylostella [1],induce feeding and oviposition behaviors
"O=S(=O)(O)c1cccc2c(-c3ccc(Nc4ccccc4)c4c(S(=O)(=O)O)cccc34)ccc(Nc3ccccc3)c12 [Bis-ANS, 4,4′-dianilino-1,1′-binaphthyl-5,5′-sulfonate]",Kd,PxylCSP9 [2],4.86 ± 0.04 µM
C=C(C)C1CC=C(C)CC1 (centres unmarked) [Limonene],behavioral avoidance response of P. xylostella,P. xylostella [1],significantly induce its behavioral avoidance response
same,oviposition deterrent effects,P. xylostella [1],oviposition deterrent effects
same,behavioral effect of plant volatile on P. xylostella (attractive / repellent),P. xylostella [1],Limonene ^b
same,EAG response of P. xylostella,P. xylostella [3],effectively stimulate the EAG response
C=CC(C)(O)CCC=C(C)C (centres unmarked) [Linalool],behavioral effect of plant volatile on P. xylostella (attractive / repellent),P. xylostella [1],Linalool ^b
CC(=O)CCC=C(C)C [Methyl heptenone],IC50,"PxylCSP9 [4]; PxylCSP9 1 μM, Bis-ANS 1 μM, 50 mM Tris-HCl pH 7.4, ligand concentration halving Bis-ANS fluorescence",20.1 ± 1.98 µM
same,Ki,PxylCSP9 [4]; calculated from IC50: Ki = [IC50]/(1 + [Bis-ANS]/KBis-ANS),17 µM
C=CC(=C)CCC=C(C)C [Myrcene],behavioral avoidance response of P. xylostella,P. xylostella [1],significantly induce its behavioral avoidance response
same,behavioral effect of plant volatile on P. xylostella (attractive / repellent),P. xylostella [1],Myrcene ^b
same,EAG response of P. xylostella,P. xylostella [3],effectively stimulate the EAG response
OCCc1ccccc1 [Phenethyl alcohol],behavioral effect of plant volatile on P. xylostella (attractive / repellent),P. xylostella [1],Phenethyl alcohol ^a
same,EAG responses and attractive behaviors,[5],elicit electroantennogram (EAG) responses and attractive behaviors
CC1=CC=C(C(C)C)CC1 [α-Terpinene],behavioral avoidance response of P. xylostella,P. xylostella [1],significantly induce its behavioral avoidance response
same,oviposition deterrent effects,P. xylostella [1],oviposition deterrent effects
same,behavioral effect of plant volatile on P. xylostella (attractive / repellent),P. xylostella [1],α-Terpinene ^b
same,EAG response of P. xylostella,P. xylostella [3],effectively stimulate the EAG response
